{"source": "patent US20220362299A1", "about": "“ENGINEERED NATURAL KILLER CELLS AND METHODS FOR USING THE SAME IN IMMUNOTHERAPY AND AUTOPHAGY INHIBITON TECHNIQUES” (Purdue Research Foundation, priority 2019, published 2022)", "key": {"GBM": {"tested_on": "GBM", "conditions": "chronic administration, controlled randomized trial / Phase III, diphosphate salt, cited from earlier work"}, "GBM43 cells [1]": {"tested_on": "GBM43 cells", "test": "Killing of CQ-treated GBM43 cells by pNK cells", "format": "cell-based, human", "conditions": "E/T ratio 5, 4 h", "description": "GBM43 cells were first treated with CQ (varying concentrations), then collected and re-seeded into 96 wells. After overnight culture, the NK cells (NK92 control cells and pNK cells against BECN1^−GBM43) were added at an E/T ratio of 5 and co-incubated for 4 h.\nTo further investigate the impact of the inhibition of autophagy on the cytotoxic capacity of NK cells, CQ-treated GBM43 cells or BECN1^− GBM43 cells were incubated with pNK cells for 4 h at an E/T ratio of 5."}, "CD73": {"tested_on": "CD73", "test": "CD73 activity of GBM43 cells (AMP hydrolysis, malachite green phosphate assay)", "format": "cell-based, human", "conditions": "various concentrations of CQ, 24 h", "description": "To test for CD73 activity and its ability to generate adenosine, GBM43 cells were seeded at 2×10^4 cells per well in a 96-well plate in complete DMEM. After overnight incubation, GBM43 cells were incubated with anti-CD73 scFv following uPA (100 nM)-mediated cleavage from either CD73.mCAR-NK92 or CD73.mCAR-pNK cells during incubation for 6 hours. Then, the cell medium was removed and cells were rinsed three times with phosphate-free buffer (117 mM NaCl, 5.3 mM KCl, 1.8 mM MgCl2, 26 mM NaHCO3, 10 mM glucose, pH 7.4, diluted in ddH2O). AMP (250 μM final), diluted in phosphate-free buffer, was added and incubated for 10 min at 37° C. Finally, the phosphate (Pi) concentrations resulting from AMP hydrolysis were measured using a malachite green phosphate assay kit following the manufacturer's instructions."}, "GBM43 cells [2]": {"tested_on": "GBM43 cells", "test": "Chemokine mRNA in GBM43 cells by RT-PCR", "format": "cell-based, human", "conditions": "vs control", "description": "Total RNAs were extracted using the mirVana™ miRNA Isolation Kit and the concentrations determined with a Qubit 4 Fluorometer. The RNA (80 ng) from each sample was reverse-transcribed using the qScript™ One-Step SYBR® Green qRT-PCR kit in a ViiA-7 RT-PCR system (Thermo Fisher Scientific, Waltham, Mass.). The GAPDH gene was used as the endogenous control. The comparative Ct values of genes of interest were normalized to the Ct value of GAPDH. The 2^−Δct method was used to determine the relative expression of the genes, while the 2^−ΔΔct method was used to calculate fold changes of gene expression over control."}}, "note": "Like-named read-outs stand apart in the source and are kept apart here.", "data": [{"substance": "Chloroquine diphosphate salt [CQ]", "values": [{"measurement": "response of GBM to antineoplastic therapy with added chloroquine", "setting": "GBM", "result": "enhance clinical responses"}, {"measurement": "response of GBM to antineoplastic therapy with added chloroquine", "setting": "GBM; listed as chloroquine (CQ)", "result": "significantly enhanced response"}, {"measurement": "killing of CQ-treated GBM43 cells by human NK cells", "setting": "GBM43 cells [1]", "result": "sensitize GBM cells to superior killing"}, {"measurement": "production of adenosine in GBM cells mediated by CD73", "setting": "CD73", "result": "significantly reduced"}, {"measurement": "CCL5 mRNA in GBM43 cells", "setting": "GBM43 cells [2]; CQ-treated", "result": "substantial upregulation"}, {"measurement": "CXCL10 mRNA in GBM43 cells", "setting": "GBM43 cells [2]; CQ-treated", "result": "substantial upregulation"}, {"measurement": "CCL2 mRNA in GBM43 cells", "setting": "GBM43 cells [2]; inhibition of autophagy", "result": "decreased transcriptional levels"}, {"measurement": "CXCL12 mRNA in GBM43 cells", "setting": "GBM43 cells [2]; inhibition of autophagy", "result": "decreased transcriptional levels"}]}]}
